Reference: patent US20260053861A1, “CELL COMPOSITIONS AND METHODS OF USING THE SAME” (THE REGENTS OF THE UNIVERSITY OF CALIFORNIA, priority 2022, published 2026)
Counter-ions that a name gives are not always drawn.

What follows are molecules tested on hPSC-SCs. Conditions: not given.
`C[C@]12CC[C@H](O)C[C@@H]1CC[C@@H]1[C@@H]2CC[C@]2(C)C(=O)CC[C@@H]12` [Epiandrosterone] gave a z.score.t of 1.457.
With `C[C@]12C[C@H]3S[C@H]3C[C@@H]1CC[C@@H]1[C@@H]2CC[C@]2(C)[C@@H](O)CC[C@@H]12` [Epitiostanol] the z.score.t was 0.1686.
Work on `CC[C@]12CCCN3CCc4c(n(c5ccccc45)[C@](O)(C(=O)OC)C1)[C@@H]32` [Epivincamine] yielded a z.score.t of −0.2486.
Work on `CC(C)C[C@H]1C(=O)N2CCC[C@H]2[C@]2(O)O[C@](NC(=O)[C@@H]3C=C4c5cccc6[nH]cc(c56)C[C@H]4N(C)C3)(C(C)C)C(=O)N12` [Ergocryptine-alpha] yielded a z.score.t of 0.495.
For `O=c1ccc2cc(O[C@@H]3O[C@H](CO)[C@@H](O)[C@H](O)[C@H]3O)c(O)cc2o1` [Esculin Hydrate], the z.score.t was 1.053.
`CNC(=O)Oc1ccc2c(c1)[C@]1(C)CCN(C)[C@@H]1N2C.CNC(=O)Oc1ccc2c(c1)[C@]1(C)CCN(C)[C@@H]1N2C.O=S(=O)(O)O` [Eserine sulfate, physostigmine sulfate] showed a z.score.t of −0.3526.
For `C#C[C@]1(O)CC[C@H]2[C@@H]3CCC4=CC(=O)CC[C@]4(C)[C@H]3CC[C@@]21C` [Ethisterone], the z.score.t was 0.2916.
Work on `CCOC(=O)c1cncn1[C@H](C)c1ccccc1` [Etomidate] yielded a z.score.t of −0.1902.
`CC(C)c1c(CN(C)C(C)Cc2ccccc2)n(C)n(-c2ccccc2)c1=O` (stereo not drawn) [Famprofazone] was tested, and the z.score.t was −1.288.
`CC(Cc1ccc(O)cc1)NCC(O)c1cc(O)cc(O)c1` (stereo not drawn) [Fenoterol hydrobromide] showed a z.score.t of 0.8992.
With `C/C=C1/C[N@+]2(C)CC[C@]34C(=C(C=O)[C@H]1C[C@@H]32)Nc1ccccc14.[Cl-]` [Fluorocurarine chloride] the z.score.t was 1.364.

Same assay, conditions: HTS viability of hPSC-SCs in the presence of 30 mM glucose; Prestwick library; Table S4
For `CCOC(=O)[C@H](CCc1ccccc1)N[C@@H](C)C(=O)N1CCC[C@H]1C(=O)O` [Enalapril maleate], the z.score.t was −0.8991.
Molecule `C=CCOC(Cn1ccnc1)c1ccc(Cl)cc1Cl` (stereo not drawn) [Enilconazole] has a z.score.t of −1.535.
Molecule `Oc1cc(O)c2c(c1)O[C@H](c1ccc(O)c(O)c1)[C@H](O)C2` [Epicatechin-(−)] has a z.score.t of −0.411.
With `COc1cc(C)nc(-n2nc(C)cc2OC)n1` [Epirizole] the z.score.t was 1.191.
`C[C@]12CC[C@H]3C(=CCc4cc(O)ccc43)[C@@H]1CCC2=O` [Equilin] gave a z.score.t of 0.9352.
Work on `CC[C@H]1OC(=O)[C@H](C)[C@@H](O[C@H]2C[C@@](C)(OC)[C@@H](O)[C@H](C)O2)[C@H](C)[C@@H](O[C@@H]2O[C@H](C)C[C@H](N(C)C)[C@H]2O)[C@](C)(O)C[C@@H](C)C(=O)[C@H](C)[C@@H](O)[C@]1(C)O` [Erythromycin] yielded a z.score.t of −0.09426.
`O=c1ccc2cc(O)c(O)cc2o1` [Esculetin] gave a z.score.t of −0.7376.
Molecule `C[C@]12CC[C@@H]3c4ccc(O)cc4CC[C@H]3[C@@H]1CC[C@@H]2O` [Estradiol-17 beta] has a z.score.t of −0.7953.
`C[C@]12CC[C@@H]3c4ccc(O)cc4CC[C@H]3[C@@H]1C[C@@H](O)[C@@H]2O` [Estriol] was tested, and the z.score.t was 0.7296.
In the case of `C[C@]12CC[C@@H]3c4ccc(O)cc4CC[C@H]3[C@@H]1CCC2=O` [Estrone], the z.score.t is reported as 1.784.
With `C[C@]12CC[C@@H]3c4ccc(OS(=O)(=O)O)cc4CC[C@H]3[C@@H]1CCC2=O` [Estropipate] the z.score.t was 1.178.
`O=C(Cn1ccnc1[N+](=O)[O-])NCCO` [Etanidazole] was tested, and the z.score.t was 0.1469.
For `C=C(CC)C(=O)c1ccc(OCC(=O)O)c(Cl)c1Cl` [Ethacrynic acid], the z.score.t was 1.53.
`CC[C@@H](CO)NCCN[C@@H](CC)CO` [Ethambutol dihydrochloride] showed a z.score.t of 1.13.
Work on `CCN(CC)C(=O)c1ccc(O)c(OC)c1` [Ethamivan] yielded a z.score.t of 1.211.
Work on `O=S(=O)(O)c1cc(O)ccc1O` [Ethamsylate] yielded a z.score.t of −0.4549.
`CCOc1ccc(Cc2nccc3cc(OCC)c(OCC)cc23)cc1OCC` [Ethaverine hydrochloride] was tested, and the z.score.t was 0.453.
In the case of `CCc1cc(C(N)=S)ccn1` [Ethionamide], the z.score.t is reported as 0.3024.
`CCN(CC)C(C)CN1c2ccccc2Sc2ccccc21` (stereo not drawn) [Ethopropazine hydrochloride] was tested, and the z.score.t was 0.2139.
In the case of `CCC1(C)CC(=O)NC1=O` (stereo not drawn) [Ethosuximide], the z.score.t is reported as 0.4064.
With `CCN1C(=O)NC(c2ccccc2)C1=O` (stereo not drawn) [Ethotoin] the z.score.t was −0.6988.
Work on `CCOc1ccc2c(c1)C(C)=CC(C)(C)N2` [Ethoxyquin] yielded a z.score.t of −1.23.
In the case of `C#C[C@]1(OC(C)=O)CC[C@H]2[C@@H]3CCC4=C[C@@H](OC(C)=O)CC[C@@H]4[C@H]3CC[C@@]21C` [Ethynodiol diacetate], the z.score.t is reported as −0.3895.
For `C#C[C@]1(O)CC[C@H]2[C@@H]3CCc4cc(OC)ccc4[C@H]3CC[C@@]21C` [Ethynylestradiol 3-methyl ether], the z.score.t was 0.9696.
Molecule `CC(O)(P(=O)(O)O)P(=O)(O)O` [Etidronic acid, disodium salt] has a z.score.t of −0.8317.
`CCc1cccc(CC)c1NC(=O)CN(CC(=O)O)CC(=O)O` [Etifenin] gave a z.score.t of 1.002.
`CCNCC(O)c1cccc(O)c1` (stereo not drawn) [Etilefrine hydrochloride] showed a z.score.t of −0.4549.
With `CCc1cccc2c3c([nH]c12)C(CC)(CC(=O)O)OCC3` (stereo not drawn) [Etodolac] the z.score.t was −0.139.
Molecule `Cn1c(=O)c2c(ncn2CCO)n(C)c1=O` [Etofylline] has a z.score.t of 0.9225.
`COc1cc([C@@H]2c3cc4c(cc3[C@@H](O[C@@H]3O[C@@H]5CO[C@@H](C)O[C@H]5[C@H](O)[C@H]3O)[C@H]3COC(=O)[C@H]23)OCO4)cc(OC)c1O` [Etoposide] showed a z.score.t of −1.576.
`CC1CC(OC(=O)C(O)c2ccccc2)CC(C)(C)N1C` (stereo not drawn) [Eucatropine hydrochloride] gave a z.score.t of 0.0568.
In the case of `COc1c2ccoc2nc2c(OC)c(OCC(O)C(C)(C)O)ccc12` (stereo not drawn) [Evoxine], the z.score.t is reported as 0.0116.
For `NC(N)=Nc1nc(CSCCC(N)=NS(N)(=O)=O)cs1` [Famotidine], the z.score.t was 1.191.
`O=C(O)Cc1ccc(-c2ccccc2)cc1` [Felbinac] showed a z.score.t of −0.0788.
In the case of `CCOC(=O)C1=C(C)NC(C)=C(C(=O)OC)C1c1cccc(Cl)c1Cl` (stereo not drawn) [Felodipine], the z.score.t is reported as 0.006455.
`COC(=O)Nc1nc2ccc(Sc3ccccc3)cc2[nH]1` [Fenbendazole] was tested, and the z.score.t was −1.607.
In the case of `O=C(O)CCC(=O)c1ccc(-c2ccccc2)cc1` [Fenbufen], the z.score.t is reported as 1.249.
`CC(NCCC(c1ccccc1)c1ccccc1)c1ccccc1` (stereo not drawn) [Fendiline hydrochloride] was tested, and the z.score.t was −1.478.
With `CC(C)OC(=O)C(C)(C)Oc1ccc(C(=O)c2ccc(Cl)cc2)cc1` [Fenofibrate] the z.score.t was 0.1742.
Molecule `CC(C(=O)O)c1cccc(Oc2ccccc2)c1` (stereo not drawn) [Fenoprofen calcium salt dihydrate] has a z.score.t of 0.1244.
Molecule `O=C1NCC2(CCN(CCc3ccccc3)CC2)O1` [Fenspiride hydrochloride] has a z.score.t of −0.01953.
Molecule `CC(C)(C(=O)O)c1ccc(C(O)CCCN2CCC(C(O)(c3ccccc3)c3ccccc3)CC2)cc1` (stereo not drawn) [Fexofenadine HCl] has a z.score.t of −0.5086.
`COc1cc(C(=O)OC2CC3CCC(C2)N3C)ccc1O` (stereo not drawn) [Fillalbin] showed a z.score.t of 0.5365.
Work on `CC(C)(C)NC(=O)[C@H]1CC[C@H]2[C@@H]3CC[C@H]4NC(=O)C=C[C@]4(C)[C@H]3CC[C@]12C` [Finasteride] yielded a z.score.t of −0.9741.
`O=C(COc1ccc(Cl)cc1)N1CCN(Cc2ccc3c(c2)OCO3)CC1` [Fipexide hydrochloride] showed a z.score.t of 0.5179.
With `Cc1c(-c2ccccc2)oc2c(C(=O)OCCN3CCCCC3)cccc2c1=O` [Flavoxate hydrochloride] the z.score.t was 1.21.
Work on `O=C(NCC1CCCCN1)c1cc(OCC(F)(F)F)ccc1OCC(F)(F)F` (stereo not drawn) [Flecainide acetate] yielded a z.score.t of 0.4105.
`CS(=O)(=O)c1ccc([C@@H](O)[C@@H](CF)NC(=O)C(Cl)Cl)cc1` [Florfenicol] showed a z.score.t of 0.5365.
Work on `Cc1onc(-c2c(F)cccc2Cl)c1C(=O)N[C@@H]1C(=O)N2[C@@H]1SC(C)(C)[C@@H]2C(=O)O` [Flucloxacillin sodium] yielded a z.score.t of −1.056.
With `Nc1[nH]c(=O)ncc1F` [Flucytosine] the z.score.t was −0.05622.
`CC(=O)OCC(=O)[C@@]1(O)CC[C@H]2[C@@H]3CCC4=CC(=O)CC[C@]4(C)[C@@]3(F)[C@@H](O)C[C@@]21C` [Fludrocortisone acetate] gave a z.score.t of 1.278.
`O=C(O)c1ccccc1Nc1cccc(C(F)(F)F)c1` [Flufenamic acid] was tested, and the z.score.t was −1.003.
In the case of `Fc1ccc(C(c2ccc(F)cc2)N2CCN(C/C=C/c3ccccc3)CC2)cc1` [Flunarizine dihydrochloride], the z.score.t is reported as −1.898.
Molecule `CC1(C)O[C@@H]2C[C@H]3[C@@H]4C[C@H](F)C5=CC(=O)C=C[C@]5(C)[C@H]4[C@@H](O)C[C@]3(C)[C@]2(C(=O)CO)O1` [Flunisolide] has a z.score.t of 1.612.
With `Cc1c(Nc2ncccc2C(=O)O)cccc1C(F)(F)F` [Flunixin meglumine] the z.score.t was 1.117.
For `CC(=O)OCC(=O)[C@@]12OC(C)(C)O[C@@H]1C[C@H]1[C@@H]3C[C@H](F)C4=CC(=O)C=C[C@]4(C)[C@@]3(F)[C@@H](O)C[C@@]12C` [Fluocinonide], the z.score.t was 0.2803.
Work on `CC(=O)[C@@]1(O)CC[C@H]2[C@@H]3C[C@H](C)C4=CC(=O)C=C[C@]4(C)[C@@]3(F)[C@@H](O)C[C@@]21C` [Fluorometholone] yielded a z.score.t of −0.9741.
`CNCCC(Oc1ccc(C(F)(F)F)cc1)c1ccccc1` (stereo not drawn) [Fluoxetine hydrochloride] gave a z.score.t of −0.865.
In the case of `OCCN1CCN(CCCN2c3ccccc3Sc3ccc(C(F)(F)F)cc32)CC1` [Fluphenazine dihydrochloride], the z.score.t is reported as −1.847.
With `CC1(C)O[C@@H]2C[C@H]3[C@@H]4C[C@H](F)C5=CC(=O)CC[C@]5(C)[C@H]4[C@@H](O)C[C@]3(C)[C@]2(C(=O)CO)O1` [Flurandrenolide] the z.score.t was 0.4741.
Work on `CC(C(=O)O)c1ccc(-c2ccccc2)c(F)c1` (stereo not drawn) [Flurbiprofen] yielded a z.score.t of 1.824.
`O=C1NCN(c2ccccc2)C12CCN(CCCC(c1ccc(F)cc1)c1ccc(F)cc1)CC2` [Fluspirilen] showed a z.score.t of −1.399.
`CC(C)C(=O)Nc1ccc([N+](=O)[O-])c(C(F)(F)F)c1` [Flutamide] showed a z.score.t of 0.5856.
`CCC(=O)O[C@]1(C(=O)SCF)[C@H](C)C[C@H]2[C@@H]3C[C@H](F)C4=CC(=O)C=C[C@]4(C)[C@@]3(F)[C@@H](O)C[C@@]21C` [Fluticasone propionate] showed a z.score.t of 0.1543.
